{"source": "patent US9777015B2", "about": "“Useful thiophene derivatives in the treatment of diabetes” (METABRAIN RESEARCH, priority 2012, dated 2017)", "key": {"GK (Goto-Kakisaki) rats": {"test_system": "GK (Goto-Kakisaki) rats", "experiment": "Antidiabetic activity in GK (Goto-Kakisaki) rats, intravenous glucose tolerance test (IVGTT)", "type": "in vivo, rat", "conditions": "single oral dose 20 mg/kg", "method": "The antidiabetic activity of compound 10 was evaluated in GK rats, a non-obese model of diabetes of type II. This model was obtained by cross-breeding of Wistar rats selected on the basis of a slight intolerance to glucose. These rats have the majority of dysfunctions observed in diabetes of type II in humans: hyperglycemia, intolerance to glucose, insulin-resistance, and deteriorated insulin response to glucose. These animals were bred at Metabrain and were housed in an animal housing facility with a regulated temperature (22±2° C.) under constant humidity (50±20%) with a day/night cycle of 12 h (light from 7 h-19 h) and have access ad libitum to food and drink. The housing and experimentation conditions comply with the European directives relating to health and ethical treatment of laboratory animals (ETS123). In this study, the rats used are female 16-week old GK rats having fasted for 2 hours before beginning the study (postabsorptive condition). A glucose tolerance test is carried out via an intravenous route (IVGTT) on 2 groups of rats: One group treated with the compound 10 orally at the single dose of 20 mg/kg and a control group treated orally with the carrier. The tolerance test is carried out 1 h after oral administration of compound 10 on the animals anesthetized beforehand with pentobarbital (45 mg/kg via an intraperitoneal route). A blood sample was taken at TO just before administration of the glucose load (0.5 g/kg via an intravenous route) and at x T5, T10, T15, T20 and T30 min after the glucose load. The blood samples are centrifuged in order to collect the plasma for determining glycemia. The results shown above are expressed • as a percentage of the decrease of glycemia at TO for the group treated with the compound 10, compared with the control group. • as a percentage of the decrease of AUC (area under the curve of glycemia versus time) for the group treated with the compound 10 as compared with the control group."}, "[1]": {"test_system": "isolated perfused pancreases of N0STZ diabetic rats", "experiment": "Insulin secretion in response to glucose at isolated perfused pancreases of N0STZ diabetic rats", "set-up": "species or system rat", "conditions": "isolated perfused pancreases of N0STZ diabetic rats", "method": "The pancreas was taken on rats made to be diabetic by injection of Streptozotocin on the day of birth and anesthetized with Pentobarbital (Nembutal©: 45 mg/kg; intraperitoneal route). These rats have a specific deficiency of the insulin response to glucose, as observed in humans with diabetes of type II. The isolation and the perfusion of the pancreas were achieved according to a modification of the procedure described by Sussman et al.. The effect of the compounds or reference substances is tested for 35 minutes (from t=20 min to t=55 min) in Krebs buffer in the absence (GO) or in the presence of glucose at 2.8 mM (G2.8 mM), and then 20 minutes (from t=55 min to t=75 min) in the presence of glucose 16.5 mM. The concentration of insulin secreted into the medium is measured by an Elisa assay (ELISA Alpco Cat no. 80-INSRTH-E10). The results are expressed as an average+/−SEM (Standard Error of the Mean) of several experiments."}, "INS-1 cells": {"test_system": "INS-1 cells", "experiment": "Stimulation test of insulin secretion by INS-1 cells", "type": "cell-based", "conditions": "Rattus norvegicus, 1 h incubation, 3.5 mM glucose", "method": "The different compounds were tested on an INS-1 beta-pancreatic line in order to evaluate their capability of potentializing the insulin secretion in response to glucose. Very briefly, the cells are cultivated in a culture medium, RPMI 1640 with 10 mM glucose containing 1 mM of sodium pyruvate, 50 μM of 2-mercaptoethanol, 2 mM of glutamine, 10 mM of HEPES, 100 IU/mL of penicillin, 100 μg/mL of streptomycin and 10% of inactivated fetal calf serum, as described by Asfari et al.. For the insulin secretion test, the INS-1 cells are sown and cultivated in 96-well plates. After 3 days of cultivation at 37° C. in a humid atmosphere (95% air/5% CO2), the medium is removed and the cells are incubated for 16 h in a medium containing 5 mM of glucose and 1% of inactivated fetal calf serum. On the day of the test, the cells are washed with a Krebs buffer (pH 7.4) containing 0.1% of bovine albumin and then pre-incubated for 30 min at 37° C. in this same buffer containing 2.8 mM of glucose. Finally, the cells are again washed with Krebs buffer and then incubated for 1 h in the buffer of the secretion test (Krebs, pH 7.4 containing 0.1% of bovine albumin and 3.5 mM of glucose and molecules to be evaluated). At the end of the test, the cell supernatant is recovered in order to measure therein the secreted insulin, by means of an ELISA kit using a rat anti-insulin antibody (ELISA Alpco Cat no. 80-INSRTH-E10). Each condition is tested in triplicate. The 3.5 mM glucose, the 10^−7M GLP-1 and the Forskoline 10^−7/IBMX 10^−5M mixtures are used as positive controls of the test. A compound stimulates the secretion of insulin if this factor is greater than or equal to 130% of the control for a given glucose dose."}, "[2]": {"test_system": "hepatocytes isolated from Wistar rat liver", "experiment": "Test of inhibition of hepatic production of glucose (isolated hepatocytes, 3 h or 20 h incubation)", "type": "cell-based", "conditions": "Rattus norvegicus, Hepatocyte, 3 h, hepatic glucose production, rat hepatocytes, 3 h incubation", "procedure,_shortened": "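Hepatocytes from 24 h-fasted Wistar rats were cultured overnight in glucose-free RPMI with hydrocortisone (7.10^−5M). Glucose production was run for 3 h in Krebs with lactate/pyruvate plus compounds (0.1% DMSO final), or after an added 20 h pretreatment during the RPMI culture. Supernatant glucose was measured by glucose oxidase and expressed per mg protein (Lowry).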"}}}
{"compound": "CCOC(=O)Cc1cc(C(=O)c2ccco2)sc1-c1ccc(Cl)cc1", "note": "[compound 10, ethyl 2-(2-(4-chlorophenyl)-5-(furan-2-carbonyl)thiophen-3-yl)acetate]", "values": [{"measurement": "intolerance to glucose", "setting": "GK (Goto-Kakisaki) rats; GK rats, IVGTT 1 h after administration", "result": "capable of reducing"}, {"measurement": "basal hyperglycemia", "setting": "GK (Goto-Kakisaki) rats; GK rats, glycemia at T0", "result": "capable of reducing"}, {"measurement": "AUC, % of activity", "setting": "GK (Goto-Kakisaki) rats; female GK rats, IVGTT, vs control group treated with carrier", "result": "−35", "unit": "%"}, {"measurement": "Glycemia at T0, % of activity", "setting": "GK (Goto-Kakisaki) rats; female GK rats, vs control group treated with carrier", "result": "−11", "unit": "%"}, {"measurement": "restoring insulin secretion in response to glucose", "setting": "[1]", "result": "strongest secretions"}, {"measurement": "activity at 10 µM", "setting": "INS-1 cells; INS1, compound at 10 μM, read-out: INS-1 % of ctrl @ 10 μM", "result": 144, "unit": "%"}, {"measurement": "activity at 50 µM", "setting": "INS-1 cells; INS1, compound at 50 μM, read-out: INS-1 % of ctrl @ 50 μM", "result": 210, "unit": "%"}, {"measurement": "activity at 50 µM", "setting": "[2]; compound at 50 μM, read-out: HGP % of ctrl @ 50 μM", "result": 64, "unit": "%"}, {"measurement": "activity at 100 µM", "setting": "[2]; compound at 100 μM, read-out: HGP % of ctrl @ 100 μM", "result": 39, "unit": "%"}]}
